From patent publication US11053204B2, “Pyrimidinyloxy benzene derivatives as herbicides” (FMC Corporation, priority 2015, dated 2021)

Experiments:
Format in all cases: in vivo
[1] = tested on: ragweed (common ragweed, Ambrosia elatior); assay: Test A preemergence, visual injury rating; details: for Ragweed plant response rating: 0 to 100 scale (0 no effect, 100 complete control)
Method in brief: (§1)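 Visual injury scored 0–100 (100 = complete control) against untreated controls about 10 days after treatment in a greenhouse. Test chemicals, formulated with surfactant in non-phytotoxic solvent, were sprayed on soil preemergence or on 2-10 cm, one- to two-leaf plants postemergence.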

[2] = tested on: kochia (Kochia scoparia); assay: Test A preemergence, visual injury rating; details: for Kochia plant response rating: 0 to 100 scale (0 no effect, 100 complete control)
Method in brief: as §1

[3] = tested on: giant foxtail (Setaria faberii); assay: Test A preemergence, visual injury rating; details: for Foxtail, Giant plant response rating: 0 to 100 scale (0 no effect, 100 complete control)
Method in brief: as §1

[4] = tested on: pigweed (Amaranthus retroflexus); assay: Test A preemergence, visual injury rating; details: for Pigweed plant response rating: 0 to 100 scale (0 no effect, 100 complete control)
Method in brief: as §1

[5] = tested on: Italian ryegrass (Lolium multiflorum); assay: Test A preemergence, visual injury rating; details: for Ryegrass, Italian plant response rating: 0 to 100 scale (0 no effect, 100 complete control)
Method in brief: as §1

[6] = tested on: barnyardgrass (Echinochloa crus-galli); assay: Test A preemergence, visual injury rating; details: for Barnyardgrass plant response rating: 0 to 100 scale (0 no effect, 100 complete control)
Method in brief: as §1

[7] = tested on: barnyardgrass (Echinochloa crus-galli); assay: Test B flooded paddy test, plant response rating; details: 250 g ai/ha; Flood; scale of 0 to 100 where 0 is no effect and 100 is complete control; 13 to 15 days
Method in brief: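 Pots were flooded to 3 cm above the soil surface at treatment, compound applied directly to the paddy water, and that depth held throughout. Plants were kept in a greenhouse for 13 to 15 days, then visually rated against untreated controls.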

[8] = tested on: kochia (Kochia scoparia); assay: Test C postemergence, plant response rating; details: for Kochia plant response rating: scale 0 to 100 (0 no effect, 100 complete control)
Method in brief: (§2)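 Preemergence: seeds sown in loam–sand blend or silt loam and sprayed with test chemicals in a non-phytotoxic surfactant-containing solvent. Postemergence: potted plants at 2–18 cm (1–4-leaf stage) sprayed with the same formulation. After 13–15 d in greenhouse, visual rating versus controls on 0 (no effect) to 100 (complete control) scale.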

[9] = tested on: crabgrass, large (large crabgrass, Digitaria sanguinalis); assay: Test C postemergence, plant response rating; details: for Crabgrass, Large plant response rating: scale 0 to 100 (0 no effect, 100 complete control)
Method in brief: as §2

[10] = tested on: wheat (winter wheat, Triticum aestivum); assay: Test C postemergence, plant response rating
Method in brief: as §2

[11] = tested on: morningglory (Ipomoea coccinea); assay: Test C postemergence, plant response rating; details: for Morningglory plant response rating: scale 0 to 100 (0 no effect, 100 complete control)
Method in brief: as §2

[12] = tested on: galium (catchweed bedstraw, Galium aparine); assay: Test C postemergence, plant response rating; details: for Galium plant response rating: scale 0 to 100 (0 no effect, 100 complete control)
Method in brief: as §2

[13] = tested on: corn (Zea mays); assay: Test C postemergence, plant response rating; details: for Corn plant response rating: scale 0 to 100 (0 no effect, 100 complete control)
Method in brief: as §2

[14] = tested on: nutsedge, yellow (yellow nutsedge, Cyperus esculentus); assay: Test C postemergence, plant response rating; details: for Nutsedge, Yellow plant response rating: scale 0 to 100 (0 no effect, 100 complete control)
Method in brief: as §2

[15] = tested on: blackgrass (Alopecurus myosuroides); assay: Test C postemergence, plant response rating; details: for Plant response rating, Blackgrass: scale 0 to 100; for Blackgrass plant response rating: scale 0 to 100 (0 no effect, 100 complete control)
Method in brief: as §2

[16] = tested on: oilseed rape (Brassica napus); assay: Test C postemergence, plant response rating; details: for Oilseed Rape plant response rating: scale 0 to 100 (0 no effect, 100 complete control)
Method in brief: as §2

[17] = 31 g ai/ha, 0 to 100 scale, 0 no effect, 100 complete control

SMILES: N#Cc1cccc(Oc2ncc(Cl)cn2)c1COCCC(F)(F)F [Compound 80]
- Plant response rating, Ragweed [1, 17]: 0
- Ragweed plant response rating ([1]; 125 g ai/ha): 20
- Plant response rating, Kochia [2, 17]: 100
- Kochia plant response rating ([2]; 125 g ai/ha): 100
- Plant response rating, Foxtail, Giant [3, 17]: 90
- Foxtail, Giant plant response rating ([3]; 125 g ai/ha): 100
- Plant response rating, Pigweed [4, 17]: 100
- Pigweed plant response rating ([4]; 125 g ai/ha): 100
- Plant response rating, Ryegrass, Italian [5, 17]: 0
- Ryegrass, Italian plant response rating ([5]; 125 g ai/ha): 50
- Plant response rating, Barnyardgrass [6, 17]: 60
- Barnyardgrass plant response rating ([6]; 125 g ai/ha): 100
- Plant response rating, Barnyardgrass [7]: 75
- Plant response rating, Kochia ([8]; 16 g ai/ha, scale of 0 to 100): 55
- Plant response rating, Kochia ([8]; 31 g ai/ha, scale 0 to 100): 75
- Kochia plant response rating ([8]; 62 g ai/ha): 80
- Kochia plant response rating ([8]; 125 g ai/ha): 80
- Plant response rating, Crabgrass, Large ([9]; 16 g ai/ha, scale of 0 to 100): 10
- Plant response rating, Crabgrass, Large ([9]; 31 g ai/ha, scale 0 to 100): 15
- Crabgrass, Large plant response rating ([9]; 62 g ai/ha): 10
- Crabgrass, Large plant response rating ([9]; 125 g ai/ha): 30
- Plant response rating, Wheat ([10]; 16 g ai/ha, scale of 0 to 100): 0
- Plant response rating, Wheat ([10]; 31 g ai/ha, scale 0 to 100): 0
- Wheat plant response rating ([10]; 125 g ai/ha, scale 0 to 100 (0 no effect, 100 complete control)): 15
- Plant response rating, Morningglory ([11]; 16 g ai/ha, scale of 0 to 100): 25
- Plant response rating, Morningglory ([11]; 31 g ai/ha, scale 0 to 100): 35
- Morningglory plant response rating ([11]; 62 g ai/ha): 55
- Morningglory plant response rating ([11]; 125 g ai/ha): 60
- Plant response rating, Galium ([12]; 16 g ai/ha, scale of 0 to 100): 70
- Plant response rating, Galium ([12]; 31 g ai/ha, scale 0 to 100): 75
- Galium plant response rating ([12]; 62 g ai/ha): 85
- Galium plant response rating ([12]; 125 g ai/ha): 90
- Plant response rating, Corn ([13]; 16 g ai/ha, scale of 0 to 100): 15
- Plant response rating, Corn ([13]; 31 g ai/ha, scale 0 to 100): 10
- Corn plant response rating ([13]; 62 g ai/ha): 15
- Corn plant response rating ([13]; 125 g ai/ha): 25
- Plant response rating, Nutsedge, Yellow ([14]; 16 g ai/ha, scale of 0 to 100): 0
- Plant response rating, Nutsedge, Yellow ([14]; 31 g ai/ha, scale 0 to 100): 0
- Nutsedge, Yellow plant response rating ([14]; 62 g ai/ha): 5
- Nutsedge, Yellow plant response rating ([14]; 125 g ai/ha): 5
- Plant response rating, Blackgrass ([15]; 16 g ai/ha): 0
- Plant response rating, Blackgrass ([15]; 31 g ai/ha): 5
- Blackgrass plant response rating ([15]; 62 g ai/ha): 5
- Blackgrass plant response rating ([15]; 125 g ai/ha): 25
- Plant response rating, Oilseed Rape ([16]; 16 g ai/ha, scale of 0 to 100): 50
- Plant response rating, Oilseed Rape ([16]; 31 g ai/ha, scale 0 to 100): 60
- Oilseed Rape plant response rating ([16]; 62 g ai/ha): 65
- Oilseed Rape plant response rating ([16]; 125 g ai/ha): 70

SMILES: N#Cc1cccc(Oc2ncc(Cl)cn2)c1C(=O)OCCC(F)(F)F [Compound 30]
- Ragweed plant response rating ([1]; 125 g ai/ha): 0
- Ragweed plant response rating ([1]; 500 g ai/ha): 0
- Kochia plant response rating ([2]; 125 g ai/ha): 90
- Kochia plant response rating ([2]; 500 g ai/ha): 100
- Foxtail, Giant plant response rating ([3]; 125 g ai/ha): 100
- Foxtail, Giant plant response rating ([3]; 500 g ai/ha): 100
- Pigweed plant response rating ([4]; 125 g ai/ha): 100
- Pigweed plant response rating ([4]; 500 g ai/ha): 100
- Ryegrass, Italian plant response rating ([5]; 125 g ai/ha): 0
- Ryegrass, Italian plant response rating ([5]; 500 g ai/ha): 0
- Barnyardgrass plant response rating ([6]; 125 g ai/ha): 0
- Barnyardgrass plant response rating ([6]; 500 g ai/ha): 0
- Plant response rating, Barnyardgrass [7]: 0

SMILES: C=C(Br)COC(=O)c1c(Br)cccc1Oc1ncc(Cl)cn1 [Compound 61]
- Ragweed plant response rating ([1]; 125 g ai/ha): 0
- Ragweed plant response rating ([1]; 500 g ai/ha): 20
- Kochia plant response rating ([2]; 125 g ai/ha): 90
- Kochia plant response rating ([2]; 500 g ai/ha): 100
- Foxtail, Giant plant response rating ([3]; 125 g ai/ha): 100
- Foxtail, Giant plant response rating ([3]; 500 g ai/ha): 100
- Pigweed plant response rating ([4]; 125 g ai/ha): 100
- Pigweed plant response rating ([4]; 500 g ai/ha): 100
- Ryegrass, Italian plant response rating ([5]; 125 g ai/ha): 30
- Ryegrass, Italian plant response rating ([5]; 500 g ai/ha): 80
- Barnyardgrass plant response rating ([6]; 125 g ai/ha): 50
- Barnyardgrass plant response rating ([6]; 500 g ai/ha): 100
- Plant response rating, Barnyardgrass [7]: 20
